Test results reported in patent US20250129102A1, “CRYSTAL FORM OF PYRIMIDINE HETEROCYCLIC COMPOUND AND PREPARATION METHOD THEREFOR” (D3 Bio (Wuxi) Co., Ltd., priority 2021, published 2025).

Tests used:
[1] = test system: KRAS^G12C-mutated MIA-PA-CA-2 cells; experiment: cells; details: Homo sapiens, MIA PaCa-2, 72 h
Procedure: The main reagent used in this assay included CellTiter-Glo (Promega, Cat. No. G7573).
The main instrument used in this assay was PerkinElmer EnVision multi-function microplate reader.
The fluorescence value was read by EnVision. • 6) Data analysis: The inhibition rate of cells in each well was calculated according to the following equation:
Y=Bottom+(Top−Bottom)/(1+10^((Log IC50−X)*HillSlope))

[2] = Metabolic stability in hepatocytes, CD-1 mice; format: in vitro ADME; details: mouse, cryopreserved hepatocytes, CD-1 mice hepatocytes
Procedure: (§1) Metabolic stabilities of assay compound in hepatocytes of CD-1 mice, SD rats, beagle dogs, cynomolgus monkeys, and human were assayed, respectively.
(§2) Several 96-well sample precipitation plates were prepared and named T0, T15, T30, T60, T90, T120, T0-MC, T120-MC and blank substrates, respectively. The recovery medium and incubation medium were taken out in advance and placed in a 37° C. water bath for pre-heating. Cryopreserved hepatocytes were removed from the liquid nitrogen tank and immediately immersed in a 37° C. water bath (approximately 90 seconds). After the cryopreserved hepatocytes had thawed and loosened, they were poured into a centrifuge tube containing 40 mL of recovery medium, and the tube was gently inverted to allow the cells to be resuspended in the recovery medium. The cells were centrifuged at 100×g at room temperature for 5 min, and the supernatant was removed. The hepatocytes were resuspended in an appropriate volume of incubation medium, and the cell viability was calculated by Trypan Blue staining method. 198 μL of hepatocyte suspension (0.51×10^6 cells/mL) was added to the preheated incubation plate. For the culture medium control group, 198 μL of hepatocyte-free incubation medium was added to T0-MC and T120-MC incubation plate. All incubation plates were pre-incubated in a 37° C. incubator for 10 minutes. Then 2 μL of working solutions of the assay sample and the control compound were added, respectively, and the mixture was mixed well. The incubation plate was immediately put into the shaker in the incubator, and the reaction was initiated while starting the timer. For each time point of each compound, 2 duplicate samples were prepared. The incubation conditions were 37° C., saturated humidity, and 5% CO2. […] All samples were mixed well and analyzed by LC/MS/MS.

[3] = Metabolic stability in hepatocytes, cynomolgus monkeys; format: in vitro ADME; details: cynomolgus monkey, cryopreserved hepatocytes
Procedure: as §1, §2

[4] = Stability in whole blood, SD rats; format: in vitro ADME; details: 5 μM, 37° C.
Procedure: (§3) Stabilities of the assay compound in whole blood of CD-1 mice, SD rats, beagle dogs and cynomolgus monkeys were assayed, respectively. On the day of the assay or the day before the assay, fresh whole blood from CD-1 mice, SD rats, beagle dogs, and cynomolgus monkeys was collected using anticoagulant EDTA-K2. Prior to the start of the assay, the whole blood was mixed with PBS in 1:1 (v: v) and the mixture was preheated in a 37° C. water bath for 10 to 20 minutes. 96-well incubation plates were prepared and named T0, T30, T60, […], respectively. In the corresponding incubation plates, including T0, T30, T60 and […] incubation plates, 2 μL of working solutions of the compound or the control compound were mixed with 98 μL of blank whole blood of mice, rats, canines, monkeys and human in duplicate. All samples were incubated in a 37° C. water bath. The final incubation concentration of the compound was 5 μM and the final incubation concentration of the control compound was 2 μM. At the end of incubation for each time point, the corresponding incubation plate was removed and 100 μL of ultrapure water was immediately added to the corresponding sample wells, and mixed well. 800 μL of a solution of 200 ng/mL tolbutamide and labetalol in acetonitrile was added to precipitate the protein. […] 150 μL of supernatant was taken out and analyzed by LC/MS/MS.

[5] = Stability in whole blood, cynomolgus monkeys; format: in vitro ADME; details: 5 μM, 37° C.
Procedure: as §3

[6] = Protein binding rate in plasma by equilibrium dialysis, CD-1 mice; format: in vitro ADME
Procedure: (§4) Protein binding rate of the assay compound in plasma of CD-1 mice, SD rats, beagle dogs, cynomolgus monkeys and human was determined by equilibrium dialysis.
(§5) Plasma samples with a compound concentration of 2 μM were prepared using plasma of the above five species, placed in a 96-well equilibrium dialysis device, and dialyzed with phosphate buffer solution at 37±1° C. for 4 hours. Warfarin was used as the control compound in this assay. The concentrations of the assay compound in plasma and dialysis buffer were determined by LC-MS/MS method.

[7] = Protein binding rate in plasma by equilibrium dialysis, SD rats; format: in vitro ADME
Procedure: as §4, §5

[8] = Body weight and tolerance in the Mia PaCa-2 tumor model; format: in vivo; details: each dose group (10 and 30 mg/kg PO QD × 22)
Procedure: Assay on pharmacodynamics in vivo in a subcutaneously transplanted tumor model of human pancreatic cancer Mia PaCa-2 cells in Balb/c Nude mice
Cell inoculation: 0.2 mL (5×10^6 cells/mouse) of Mia PaCa-2 cells (plus Matrigel, 1:1 by volume) were subcutaneously inoculated into the right back of each mouse. When the average tumor volume reached 190 mm^3, mice were randomized into groups based on tumor volume and administration was initiated according to the protocol in Table 15.

In the case of `C=C(F)C(=O)N1CCN(c2nc(OC[C@@]34CCCN3C[C@H](F)C4)nc3c2CO[C@H](c2c(F)c(N)cc(C)c2C(F)(F)F)C3)C[C@@H]1CC#N` [Compound of formula (I)], the IC50 [1] is reported as 0.44 nM, the half-life at 1 μM [2] is reported as 9.5 min and the hepatocyte CLint at 1 μM ([2]; read-out: CLint(hep)) is reported as 146 µL/min/1e6 cells. It also gave a CLint scaled at 1 μM ([2]; read-out: CLint(liver)) of 1740 mL/min/kg, a half-life at 1 μM [3] of 27 min and a hepatocyte CLint at 1 μM ([3]; read-out: CLint(hep)) of 51.3 µL/min/1e6 cells. For the same compound, the CLint scaled at 1 μM ([3]; read-out: CLint(liver)) was 185 mL/min/kg, the “Detection of assay compound content within 240 min” value [4] was 115% and the “Detection of assay compound content within 240 min” value [5] was 77%. For the same compound, the fraction unbound at 4 h, 2 μM ([6]; CD-1, plasma, value used in the CD mouse PK table, read-out: Plasma protein unbound rate PPB (Unbound %)) was 0.12, the “Protein unbound rate (%)” value ([6]; CD-1 mice plasma, 2 μM, equilibrium dialysis 4 hours) was 1.5% and the “Protein unbound rate (%)” value ([7]; SD rats plasma, 2 μM, equilibrium dialysis 4 hours) was 4.8%. For the same compound, the fraction unbound at 4 h, 2 μM ([7]; plasma, value used in the SD rat PK table, read-out: Plasma protein unbound rate PPB (Unbound %)) was 0.048, the “body weight of mice” value [8] was “stable” and the tolerance [8] was “no obvious intolerance”.
